# Results published in US20250144067A1, “PERSONALIZED STARVATION THERAPY FOR CANCER” (Faeth Therapeutics, Inc., priority 2021, published 2025).
# Structures can show the parent of a compound that is named as a salt. Where two headings read alike, the source gives them in different places.
# How the values were obtained:
# [1] = test system: NCI-H292 lung cancer cells; assay: FDA drug screening, complete media vs cholesterol-free media with simvastatin (TABLE 2); type: cell-based, human
# [2] = test system: NCI-H292 lung cancer cells; assay: FDA drug screening, complete media vs cholesterol-free media without statin (TABLE 1); type: cell-based, human
# [3] = NCI-H292 cells, drug in cholesterol-free media with simvastatin 0.04 μM
# [4] = NCI-H292 cells, drug in complete media
# [5] = complete media vs cholesterol-free media + simvastatin (0.04 μM), >0 enhanced anti-cancer activity, about 0 neutral, <0 antagonist
# [6] = Complete minus Cholesterol-free, greater than 0 enhanced anti-cancer activity, about 0 neutral, below 0 antagonist
# [7] = NCI-H292 cells, FDA drug library screen, cholesterol-free media without statin
# [8] = NCI-H292 cells, FDA drug library screen, complete media
# [9] = NCI-H292 cells, cholesterol-free media with simvastatin 0.04 μM, cell growth value in FDA drug screen
# [10] = NCI-H292 cells, complete media, cell growth value in FDA drug screen
# [11] = complete media minus cholesterol-free media + simvastatin, >0 enhanced anti-cancer activity, about 0 neutral, <0 antagonist
# [12] = NCI-H292 cells, cholesterol-free media without statin
# [13] = complete vs cholesterol-free media, greater than 0 enhanced anti-cancer activity, about 0 neutral, below 0 antagonists
# [14] = NCI-H292 cells, FDA drug library screen, cholesterol-free media with simvastatin 0.04 μM
# [15] = Complete minus Cholesterol-free, >0 enhanced anti-cancer activity, about 0 neutral, <0 antagonist
# [16] = NCI-H292 cells, cholesterol-free media without statin, FDA drug library screen
# [17] = NCI-H292 cells, complete media, FDA drug library screen
# [18] = NCI-H292 cells, FDA library drug in cholesterol-free media with simvastatin 0.04 μM
# [19] = Complete minus Cholesterol-free, greater than 0 enhanced anti-cancer activity, about 0 neutral, below 0 antagonists
# [20] = NCI-H292 cells in cholesterol-free media without statin
# [21] = NCI-H292 cells in complete media
# [22] = NCI-H292 cells, cholesterol-free media with simvastatin 0.04 μM, FDA drug library screen (TABLE 2)
# [23] = NCI-H292 cells, complete media, FDA drug library screen (TABLE 2)
# [24] = complete media minus cholesterol-free media + simvastatin (0.04 μM), […]
# [25] = Complete minus Cholesterol-free, […]
# [26] = complete vs cholesterol-free media, >0 enhanced anti-cancer activity, about 0 neutral, <0 antagonist
# [27] = NCI-H292 cells, FDA library drug in complete media
compound,measurement,setting,value
CC(C)(CO)[C@H](O)C(=O)NCCCO [D-Panthenol],Cholesterol-free media + simvastatin (0.04 μM),[1]; [3],1.067
same,Complete Media,[1]; [4],0.817
same,Difference,[1]; [5],−0.25
same,Difference,[2]; [6],−0.09
same,Cholesterol-free,[2]; [7],1.002
same,Complete,[2]; [8],0.9087
Diethylcarbamazine (citrate),Cholesterol-free media + simvastatin (0.04 μM),[1]; [9],0.703
same,Complete Media,[1]; [10],0.7247
same,Difference,[1]; [11],0.02
same,Cholesterol-free,[2]; [12],1.324
same,Complete,"[2]; NCI-H292 cells, complete media",0.9451
same,Difference,[2]; [13],−0.38
Cn1cc(C(=O)[C@@H]2CCc3nc[nH]c3C2)c2ccccc21 [Ramosetron (Hydrochloride)],Cholesterol-free media + simvastatin (0.04 μM),[1]; [14],1.25
same,Complete Media,[1]; [8],1.513
same,Difference,[1]; [11],0.26
same,Difference,[2]; [15],0.03
same,Cholesterol-free,[2]; [16],0.9223
same,Complete,[2]; [17],0.9545
O=C1NS(=O)(=O)c2ccccc21 [Saccharin],Cholesterol-free media + simvastatin (0.04 μM),[1]; [14],0.8779
same,Complete Media,[1]; [8],0.7765
same,Difference,[1]; [5],−0.10
same,Difference,[2]; [15],0.01
same,Cholesterol-free,[2]; [16],0.9292
same,Complete,[2]; [17],0.9415
O=S(=O)(c1cccc2cnccc12)N1CCCNCC1 [Fasudil (Hydrochloride)],Cholesterol-free media + simvastatin (0.04 μM),[1]; [14],0.9921
same,Complete Media,[1]; [8],1.233
same,Difference,[1]; [11],0.24
same,Difference,[2]; [6],−0.12
same,Cholesterol-free,[2]; [7],1.121
same,Complete,[2]; [8],1
CC(C)Cc1ccc(C(C)C(=O)O)cc1 (centres unmarked) [Ibuprofen],Cholesterol-free media + simvastatin (0.04 μM),[1]; [18],1.512
same,Difference,[1]; [5],−0.36
same,Cholesterol-free,[2]; [12],1.419
same,Complete,"[2]; NCI-H292 cells, complete media",1.058
same,Difference,[2]; [13],−0.36
Trimipramine (maleate),Cholesterol-free media + simvastatin (0.04 μM),[1]; [14],1.033
same,Complete Media,[1]; [8],1.193
same,Difference,[1]; [11],0.16
same,Difference,[2]; [19],−0.51
same,Cholesterol-free,[2]; [20],1.537
same,Complete,[2]; [21],1.022
COc1cc(S(=O)(=O)[O-])ccc1O.[K+] [Sulfogaiacol],Cholesterol-free media + simvastatin (0.04 μM),[1]; [22],0.9781
same,Complete Media,[1]; [23],0.9488
same,Difference,[1]; [24],−0.03
same,Difference,[2]; [25],−0.01
same,Cholesterol-free,[2]; [16],0.8896
same,Complete,[2]; [17],0.8811
CC(O)C(=O)O.CCOc1ccc2nc3cc(N)ccc3c(N)c2c1.O [Ethacridine (lactate monohydrate)],Cholesterol-free media + simvastatin (0.04 μM),[1]; [22],0.1737
same,Complete Media,[1]; [23],0.1706
same,Difference,[1]; [24],0.00
same,Difference,[2]; [25],−0.05
same,Cholesterol-free,[2]; [16],0.2006
same,Complete,[2]; [17],0.1519
Cc1c(C(=O)Nc2ccc(N3C[C@@H](C)O[C@@H](C)C3)nc2)cccc1-c1ccc(OC(F)(F)F)cc1 [Sonidegib],Cholesterol-free media + simvastatin (0.04 μM),[1]; [9],1.12
same,Complete Media,[1]; [10],1.188
same,Difference,[1]; [11],0.07
same,Cholesterol-free,[2]; [16],0.6523
same,Complete,[2]; [17],0.8188
same,Difference,[2]; [26],0.17
N[C@@H](CCC(=O)O)C(=O)[O-].[Na+] [L-Glutamic acid monosodium salt],Cholesterol-free media + simvastatin (0.04 μM),[1]; [18],1.191
same,Complete Media,[1]; [27],0.778
same,Difference,"[1]; complete media vs cholesterol-free media + simvastatin (0.04 μM), […]",−0.41
same,Difference,[2]; [25],−0.03
same,Cholesterol-free,[2]; [16],1.093
same,Complete,[2]; [17],1.059
Asenapine (maleate),Cholesterol-free media + simvastatin (0.04 μM),[1]; [3],1.309
same,Complete Media,[1]; [4],1.135
same,Difference,[1]; [5],−0.17
same,Difference,[2]; [19],−0.56
same,Cholesterol-free,[2]; [20],1.49
same,Complete,[2]; [21],0.9322
CC[C@H]1[C@@H]2C[C@H]3[C@@H]4N(C)c5ccccc5[C@]45C[C@@H]([C@H]2[C@H]5O)N3[C@@H]1O [Ajmaline],Cholesterol-free media + simvastatin (0.04 μM),[1]; [22],1.33
same,Complete Media,[1]; [23],1.333
same,Difference,[1]; [24],0.00
same,Difference,[2]; [25],−0.16
same,Cholesterol-free,[2]; [7],1.107
same,Complete,[2]; [8],0.943
Cc1cc(-n2c(=O)[nH]c(=O)n(C)c2=O)ccc1Oc1ccc(SC(F)(F)F)cc1 [Toltrazuril],Cholesterol-free media + simvastatin (0.04 μM),[1]; [14],0.9815
same,Complete Media,[1]; [8],0.8466
same,Difference,[1]; [5],−0.13
same,Difference,[2]; [15],−0.07
same,Cholesterol-free,[2]; [16],0.9718
same,Complete,[2]; [17],0.9012
Cc1onc(-c2c(F)cccc2Cl)c1C(=O)N[C@@H]1C(=O)N2[C@@H]1SC(C)(C)[C@@H]2C(=O)O [Flucloxacillin sodium],Cholesterol-free media + simvastatin (0.04 μM),[1]; [18],1.127
same,Complete Media,[1]; [27],0.8297
same,Difference,[1]; [5],−0.30
same,Difference,[2]; [15],−0.29
same,Cholesterol-free,[2]; [12],1.264
same,Complete,"[2]; NCI-H292 cells, complete media",0.9693
Cc1nc(C)c(C)nc1C [Ligustrazine (hydrochloride)],Cholesterol-free media + simvastatin (0.04 μM),[1]; [3],1.229
same,Complete Media,[1]; [4],1.02
same,Difference,[1]; [5],−0.21
same,Difference,[2]; [15],−0.06
same,Cholesterol-free,[2]; [16],1.047
same,Complete,[2]; [17],0.9829
CCOC(=O)[C@H](C)C[C@@H](Cc1ccc(-c2ccccc2)cc1)NC(=O)CCC(=O)O [Sacubitril hemicalcium salt],Cholesterol-free media + simvastatin (0.04 μM),[1]; [22],1.02
same,Complete Media,[1]; [23],1
same,Difference,"[1]; complete media minus cholesterol-free media + simvastatin (0.04 μM), >0 enhanced anti-cancer activity, about 0 neutral, <0 antagonist",−0.02
same,Cholesterol-free,[2]; [16],0.6536
same,Complete,[2]; [17],1.134
same,Difference,[2]; [26],0.48
C[C@]12CCC(=O)C=C1[C@@H]1C[C@@H]1[C@H]1[C@@H]3[C@@H]4C[C@@H]4[C@@]4(CCC(=O)O4)[C@@]3(C)CC[C@@H]12 [Drospirenone],Cholesterol-free media + simvastatin (0.04 μM),[1]; [3],1.4
same,Complete Media,[1]; [4],1.139
same,Difference,[1]; [5],−0.26
same,Cholesterol-free,[2]; [12],1.382
same,Complete,"[2]; NCI-H292 cells, complete media",1.062
same,Difference,[2]; [13],−0.32
NC[C@@H]1O[C@H](O[C@H]2[C@@H](O)[C@H](O[C@@H]3[C@@H](O)[C@H](N)C[C@H](N)[C@H]3O[C@H]3O[C@H](CN)[C@@H](O)[C@H](O)[C@H]3N)O[C@@H]2CO)[C@H](N)[C@@H](O)[C@@H]1O.O=S(=O)(O)O [Neomycin (sulfate)],Cholesterol-free media + simvastatin (0.04 μM),[1]; [14],0.8549
same,Complete Media,[1]; [8],1.021
same,Difference,[1]; [11],0.17
same,Difference,[2]; [6],−0.17
same,Cholesterol-free,[2]; [7],1.592
same,Complete,[2]; [8],1.421
O=C(CCCN1CC=C(n2c(=O)[nH]c3ccccc32)CC1)c1ccc(F)cc1 [Droperidol],Cholesterol-free media + simvastatin (0.04 μM),[1]; [18],1.065
same,Complete Media,[1]; [27],0.7994
same,Difference,[1]; [5],−0.27
same,Difference,[2]; [15],−0.22
same,Cholesterol-free,[2]; [12],1.218
same,Complete,"[2]; NCI-H292 cells, complete media",1.002
C=CC(=O)Nc1cc(Nc2nccc(-c3cn(C4CC4)c4ccccc34)n2)c(OC)cc1N(C)CCN(C)C [Almonertinib],Cholesterol-free media + simvastatin (0.04 μM),[1]; [14],0.4298
same,Complete Media,[1]; [8],0.2855
same,Difference,[1]; [5],−0.14
same,Difference,[2]; [15],−0.19
same,Cholesterol-free,[2]; [12],0.4646
same,Complete,"[2]; NCI-H292 cells, complete media",0.2735
CCCCc1oc2ccc(NS(C)(=O)=O)cc2c1C(=O)c1ccc(OCCCN(CCCC)CCCC)cc1 [Dronedarone],Cholesterol-free media + simvastatin (0.04 μM),[1]; [14],0.4908
same,Complete Media,[1]; [8],0.8741
same,Difference,[1]; [11],0.38
same,Difference,[2]; [6],−0.14
same,Cholesterol-free,[2]; [7],1.006
same,Complete,[2]; [8],0.8674
N[C@@H](CSCCCO)C(=O)O [Fudosteine],Cholesterol-free media + simvastatin (0.04 μM),[1]; [14],1.309
same,Complete Media,[1]; [8],1.163
same,Difference,[1]; [5],−0.15
same,Cholesterol-free,[2]; [16],1.084
same,Complete,[2]; [17],1.177
same,Difference,[2]; [26],0.09
Pergolide (mesylate),Cholesterol-free media + simvastatin (0.04 μM),[1],0.9579
same,Complete Media,[1],1.079
same,Difference,[1],0.12
same,Cholesterol-free,[2],1.027
same,Complete,[2],0.8214
same,Difference,[2],−0.21
